Patent US20080021026A1, “BENZOTHIOPHENE INHIBITORS OF RHO KINASE” (priority 2006, published 2008)

These compounds were tested against T1, recombinant N-terminal GST-tagged human Rho kinase 2 (ROCK2, amino acids 1-552) (Homo sapiens, UniProt O75116) (assay: In vitro Rho kinase assay (luciferase-based ATP consumption), ROCK2). Conditions: recombinant GST-tagged human ROCK2, luciferase-based ATP consumption; read-out: ROCK2 IC50.
T1 construct: ROCK2, amino acids 1-552; purchased Invitrogen Inc. PV3759
Type: biochemical
Protocol: In Vitro Rho Kinase Assay
Rho kinase biochemical assays described below depend on firefly luciferase-based, indirect measurement of total ATP consumption by the kinase following incubation with substrate and ATP. 25 μl of Rho kinase assay buffer (20 mM Tris-HCL [pH 7.5], 1 mM MgCl2, 0.4 mM CaCl2, 0.15 mM EGTA, 0.1 mg/ml bovine serum albumin) containing 0.82 μg/ml of recombinant N-terminal GST-tagged human Rho kinase 1 (ROCK1, amino acids 1-535, Invitrogen Inc., cat. #PV-3691) or recombinant N-terminal GST-tagged human Rho kinase 2 (ROCK2, amino acids 1-552, Invitrogen Inc., cat #PV3759), 100 μg/ml S6 peptide substrate (related to amino acids 218-249 of the human 40S ribosomal protein S6, and suitable for ROCK1 or ROCK2, e.g. Upstate/Millipore Inc., cat #12-420), and 3 µM ATP are dispensed to wells of a 384 multi-well opaque plate. The plate is centrifuged for 30 seconds at approximately 200×g. 240 nl of test compound in DMSO is dispensed to each well by passive pin transfer. The lag phase of this in vitro kinase reaction permits addition of compounds soon after the reaction initiates. The reaction is allowed to incubate at 30° C. for 2 hours. The assay plates are sealed and maintained in a humidified environment. After 2 hours, 25 μl of easylite protein kinase assay reagent (Perkin-Elmer, Inc.) is dispensed. After an additional 10 minute incubation at room temperature (about 22° C.), luminescence activity is measured on a Molecular Devices Analyst multi-mode plate reader or other suitable plate reader. Kinase inhibition results in less ATP consumption, and therefore increased luminescence signal. Negative control activity is measured with DMSO lacking any test compound. The positive control is 2-methyl-1-(4-methylisoquinolin-5-ylsulfonyl)perhydro-1,4-diazepine hydrochloride (aka H-1152P, HCl salt). Efficacy is measured as a percentage of positive control activity. […] In some cases, kinase reactions and compound testing are performed in 1536 multi-well plates under similar conditions, with assay volumes appropriately scaled. The designation NT means the cited example was not tested.

T1 sequence (O75116 1-552): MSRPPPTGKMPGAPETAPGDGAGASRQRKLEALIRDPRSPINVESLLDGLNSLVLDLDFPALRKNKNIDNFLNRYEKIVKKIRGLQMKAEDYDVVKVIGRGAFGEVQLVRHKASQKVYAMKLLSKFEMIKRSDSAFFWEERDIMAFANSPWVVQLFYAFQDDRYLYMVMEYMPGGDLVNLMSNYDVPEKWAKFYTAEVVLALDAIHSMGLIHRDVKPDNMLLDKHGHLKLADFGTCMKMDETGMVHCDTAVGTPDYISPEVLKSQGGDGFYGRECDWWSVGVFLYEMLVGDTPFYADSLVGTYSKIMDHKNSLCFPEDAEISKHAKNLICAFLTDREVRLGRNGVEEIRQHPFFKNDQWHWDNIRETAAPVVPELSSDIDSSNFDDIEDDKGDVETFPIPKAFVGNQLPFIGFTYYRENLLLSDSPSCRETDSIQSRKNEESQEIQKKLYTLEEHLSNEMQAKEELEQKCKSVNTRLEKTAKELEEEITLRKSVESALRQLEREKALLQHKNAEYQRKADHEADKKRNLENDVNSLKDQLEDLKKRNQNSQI

Row | Compound | IC50
1 | Cc1c(-c2ccnc(N)n2)sc2ccc(C(=O)NCCCN3CCCC3=O)cc12 [Example 411, Cc1c(sc2ccc(cc12)C(═O)NCCCN3CCCC3═O)-c4ccnc(N)n4] | > 5 µM
2 | Cc1c(-c2ccnc(N)n2)sc2ccc(C(=O)N3CCC(O)(c4ccc(Cl)cc4)CC3)cc12 [Example 558, Cc1c(sc2ccc(cc12)C(═O)N3CCC(O)(CC3)c4ccc(Cl)cc4)-c5ccnc(N)n5] | > 5 µM
3 | Cc1c(-c2ccnc(N)n2)sc2ccc(C(=O)N(C)C(Cc3ccccc3)c3ccccc3)cc12 (stereo not shown) [Example 557, CN(C(Cc1ccccc1)c2ccccc2)C(═O)c3ccc4sc(c(C)c4c3)-c5ccnc(N)n5] | > 5 µM
4 | Cc1c(-c2ccnc(N)n2)sc2ccc(C(=O)N(C)CC(O)c3ccc(O)cc3)cc12 (stereo not shown) [Example 518, CN(CC(O)c1ccc(O)cc1)C(═O)c2ccc3sc(c(C)c3c2)-c4ccnc(N)n4] | < 5 µM
5 | COc1ccc(C(=O)CNC(=O)c2ccc3sc(-c4ccnc(N)n4)c(C)c3c2)cc1 [Example 455, COc1ccc(cc1)C(═O)CNC(═O)c2ccc3sc(c(C)c3c2)-c4ccnc(N)n4] | < 5 µM
6 | Cc1c(-c2ccnc(N)n2)sc2ccc(C(=O)NCc3cc(F)cc(F)c3)cc12 [Example 414, Cc1c(sc2ccc(cc12)C(═O)NCc3cc(F)cc(F)c3)-c4ccnc(N)n4] | < 5 µM
7 | Cc1c(-c2ccnc(N)n2)sc2ccc(C(=O)N3CCC(C)CC3)cc12 [Example 473, CC1CCN(CC1)C(═O)c2ccc3sc(c(C)c3c2)-c4ccnc(N)n4] | < 5 µM
8 | Cc1c(-c2ccnc(N)n2)sc2ccc(C(=O)NCCC#N)cc12 [Example 338, Cc1c(sc2ccc(cc12)C(═O)NCCC#N)-c3ccnc(N)n3] | < 5 µM
9 | Cc1cccc(N2CCN(C(=O)c3ccc4sc(-c5ccnc(N)n5)c(C)c4c3)CC2)c1C [Example 534, Cc1cccc(N2CCN(CC2)C(═O)c3ccc4sc(c(C)c4c3)-c5ccnc(N)n5)c1C] | > 5 µM
10 | Cc1c(-c2ccnc(N)n2)sc2ccc(C(=O)NCCc3ccc(Cl)cc3)cc12 [Example 428, Cc1c(sc2ccc(cc12)C(═O)NCCc3ccc(Cl)cc3)-c4ccnc(N)n4] | < 5 µM
11 | Cc1c(-c2ccnc(N)n2)sc2ccc(C(=O)N3CCN(c4ccccc4)CC3)cc12 [Example 513, Cc1c(sc2ccc(cc12)C(═O)N3CCN(CC3)c4ccccc4)-c5ccnc(N)n5] | < 5 µM
12 | Cc1c(-c2ccnc(N)n2)sc2ccc(C(=O)N3CCN(c4ccc(F)cc4)CC3)cc12 [Example 526, Cc1c(sc2ccc(cc12)C(═O)N3CCN(CC3)c4ccc(F)cc4)-c5ccnc(N)n5] | < 5 µM
13 | CCN(CC)C(=O)c1ccc2sc(-c3ccnc(N)n3)c(C)c2c1 [Example 462, CCN(CC)C(═O)c1ccc2sc(c(C)c2c1)-c3ccnc(N)n3] | < 5 µM
14 | Cc1c(-c2ccnc(N)n2)sc2ccc(C(=O)NC(C)Cc3ccncc3)cc12 (stereo not shown) [Example 399, CC(Cc1ccncc1)NC(═O)c2ccc3sc(c(C)c3c2)-c4ccnc(N)n4] | < 5 µM
15 | Cc1ccc(Cl)cc1N1CCN(C(=O)c2ccc3sc(-c4ccnc(N)n4)c(C)c3c2)CC1 [Example 554, Cc1ccc(Cl)cc1N2CCN(CC2)C(═O)c3ccc4sc(c(C)c4c3)-c5ccnc(N)n5] | < 5 µM
16 | Cc1c(-c2ccnc(N)n2)sc2ccc(C(=O)NCC3CCCO3)cc12 (stereo not shown) [Example 357, Cc1c(sc2ccc(cc12)C(═O)NCC3CCCO3)-c4ccnc(N)n4] | < 5 µM
17 | Cc1c(-c2ccnc(N)n2)sc2ccc(C(=O)N3CCN(c4ccc(F)cc4F)CC3)cc12 [Example 546, Cc1c(sc2ccc(cc12)C(═O)N3CCN(CC3)c4ccc(F)cc4F)-c5ccnc(N)n5] | > 5 µM

Continued, values first:

Row | IC50 | Compound
18 | < 5 µM | Cc1c(-c2ccnc(N)n2)sc2ccc(C(=O)N3CC(C)OC(C)C3)cc12 (stereo not shown) [Example 488, CC1CN(CC(C)O1)C(═O)c2ccc3sc(c(C)c3c2)-c4ccnc(N)n4]
19 | < 5 µM | Cc1c(-c2ccnc(N)n2)sc2ccc(C(=O)NC3CCN(Cc4ccccc4)C3)cc12 (stereo not shown) [Example 448, Cc1c(sc2ccc(cc12)C(═O)NC3CCN(C3)Cc4ccccc4)-c5ccnc(N)n5]
20 | < 5 µM | Cc1c(-c2ccnc(N)n2)sc2ccc(C(=O)NCc3cccs3)cc12 [Example 367, Cc1c(sc2ccc(cc12)C(═O)NCc3cccs3)-c4ccnc(N)n4]
21 | < 5 µM | Cc1c(-c2ccnc(N)n2)sc2ccc(C(=O)NCCOc3ccccc3)cc12 [Example 401, Cc1c(sc2ccc(cc12)C(═O)NCCOc3ccccc3)-c4ccnc(N)n4]
22 | < 5 µM | Cc1c(-c2ccnc(N)n2)sc2ccc(C(=O)NC3CCC3)cc12 [Example 339, Cc1c(sc2ccc(cc12)C(═O)NC3CCC3)-c4ccnc(N)n4]
23 | < 5 µM | Cc1c(-c2ccnc(N)n2)sc2ccc(C(=O)NCC(C)c3ccccc3)cc12 (stereo not shown) [Example 396, CC(CNC(═O)c1ccc2sc(c(C)c2c1)-c3ccnc(N)n3)c4ccccc4]
24 | < 5 µM | Cc1c(-c2ccnc(N)n2)sc2ccc(C(=O)N(CCO)[C@H](C)c3ccccc3)cc12 [Example 516, C[C@@H](N(CCO)C(═O)c1ccc2sc(c(C)c2c1)-c3ccnc(N)n3)c4ccccc4]
25 | < 5 µM | Cc1c(-c2ccnc(N)n2)sc2ccc(C(=O)NCC(C)C)cc12 [Example 342, CC(C)CNC(═O)c1ccc2sc(c(C)c2c1)-c3ccnc(N)n3]
26 | < 5 µM | COc1cc2c(cc1OC)CN(C(=O)c1ccc3sc(-c4ccnc(N)n4)c(C)c3c1)CC2 [Example 564, COc1cc2CCN(Cc2cc1OC)C(═O)c3ccc4sc(c(C)c4c3)-c5ccnc(N)n5]
27 | < 5 µM | CCN(C(=O)c1ccc2sc(-c3ccnc(N)n3)c(C)c2c1)C(C)C [Example 468, CCN(C(C)C)C(═O)c1ccc2sc(c(C)c2c1)-c3ccnc(N)n3]
28 | < 5 µM | Cc1c(-c2ccnc(N)n2)sc2ccc(C(=O)NC3CCCC3)cc12 [Example 346, Cc1c(sc2ccc(cc12)C(═O)NC3CCCC3)-c4ccnc(N)n4]
29 | < 5 µM | Cc1c(-c2ccnc(N)n2)sc2ccc(C(=O)NCCNC(=O)OC(C)(C)C)cc12 [Example 434, Cc1c(sc2ccc(cc12)C(═O)NCCNC(═O)OC(C)(C)C)-c3ccnc(N)n3]
30 | < 5 µM | Cc1c(-c2ccnc(N)n2)sc2ccc(C(=O)N3CCCCC3C)cc12 (stereo not shown) [Example 472, CC1CCCCN1C(═O)c2ccc3sc(c(C)c3c2)-c4ccnc(N)n4]
31 | < 5 µM | Cc1c(-c2ccnc(N)n2)sc2ccc(C(=O)NCCCN3CCOCC3)cc12 [Example 415, Cc1c(sc2ccc(cc12)C(═O)NCCCN3CCOCC3)-c4ccnc(N)n4]
32 | < 5 µM | Cc1c(-c2ccnc(N)n2)sc2ccc(C(=O)NC3CC(C)(C)NC(C)(C)C3)cc12 [Example 430, Cc1c(sc2ccc(cc12)C(═O)NC3CC(C)(C)NC(C)(C)C3)-c4ccnc(N)n4]
33 | < 5 µM | Cc1cnc(CNC(=O)c2ccc3sc(-c4ccnc(N)n4)c(C)c3c2)cn1 [Example 381, Cc1cnc(CNC(═O)c2ccc3sc(c(C)c3c2)-c4ccnc(N)n4)cn1]
34 | < 5 µM | Cc1c(-c2ccnc(N)n2)sc2ccc(C(=O)NCc3cccc(F)c3)cc12 [Example 382, Cc1c(sc2ccc(cc12)C(═O)NCc3cccc(F)c3)-c4ccnc(N)n4]
35 | < 5 µM | Cc1c(-c2ccnc(N)n2)sc2ccc(C(=O)N[C@H](C)c3ccccc3)cc12 [Example 377, C[C@@H](NC(═O)c1ccc2sc(c(C)c2c1)-c3ccnc(N)n3)c4ccccc4]
36 | < 5 µM | CCCN(CCC)C(=O)c1ccc2sc(-c3ccnc(N)n3)c(C)c2c1 [Example 478, CCCN(CCC)C(═O)c1ccc2sc(c(C)c2c1)-c3ccnc(N)n3]
37 | < 5 µM | Cc1c(-c2ccnc(N)n2)sc2ccc(C(=O)N(C)CC(C)C)cc12 [Example 467, CC(C)CN(C)C(═O)c1ccc2sc(c(C)c2c1)-c3ccnc(N)n3]
